Measured values taken from PMC6155852, “Oral Administration of the Japanese Traditional Medicine Keishibukuryogan-ka-yokuinin Decreases Reactive Oxygen Metabolites in Rat Plasma: Identification of Chemical Constituents Contributing to Antioxidant Activity” (Molecules : A Journal of Synthetic Chemistry and Natural …, 2017).
“And” between values parts separate entries of the source, which are not always exact repeats. Equal entries are not always repeated. Where two headings read alike, the source gives them in different places.

Tests used:
[1] = Plasma pharmacokinetics of KBGY constituents in rats after single oral administration of KBGY; type: in vivo, rat
Protocol: KBGY prepared in water was administered orally to 16 h fasted rats at a dose of 2 g/10 mL/kg (n = 3). […] Plasma was obtained by centrifugation at 1700× g for 15 min at 4 °C and stored at −80 °C until analysis.
For quantification of the dicarboxylic acid, 50 µL of standard solution, 100 µL of acetic acid (2%, v/v), and 650 µL of ethyl acetate were added to 200 µL of plasma samples, followed by mixing and centrifugation (7000× g, 5 min). The supernatants were collected and dried with a centrifugal evaporator and concentration system (CC-105; TOMY SEIKO Co., Tokyo, Japan). The residue was dissolved with 100 µL acetonitrile and 50 µL BF3/butanol solution; the dissolved solution was incubated for 1 h at 60 °C. The reaction was terminated by the addition of 50 µL of water and hexane, 150 µL of a saturated solution of sodium chloride, and 400 µL of hexane. The solution was vortexed for 2 min, and the supernatant was obtained by centrifugation (7000× g, 5 min). Liquid–liquid extraction was repeated twice. The corrected supernatant was dried with the centrifugal evaporator and concentration system. The dried residue was dissolved in 100 µL of acetonitrile containing 1 µg/mL of o-terphenyl (Tokyo Chemical Ind. Co.) as an internal standard (IS). Five microliters of the solution was then injected into the GC/MS system.
For quantification of volatile organic compounds (cinnamaldehyde, methyl cinnamate, 2-methoxycinnamaldehyde, mandelonitrile, salicylaldehyde, eugenol, cinnamyl alcohol, and 3-phenylpropyl acetate), 25 µL of standard solution, 25 µL of 2 µg/mL of 1,4-dibromobenzene (Tokyo Chemical Ind. Co.) as IS, and 500 µL of acetonitrile were added to 200 µL of plasma samples, followed by mixing and centrifugation (7000× g, 5 min). Five microliters of the supernatant was then injected into the GC/MS system.
For quantification of other compounds, 25 µL of standard solution, 25 µL of 2 ng/mL of atropine sulfate monohydrate (Wako Pure Chemical Ind.) or niflumic acid (Sigma-Aldrich) as IS, and 750 µL of methanol were added to 200 µL of plasma samples, followed by mixing and centrifugation (7000× g, 5 min). The supernatant was obtained and dried with the centrifugal evaporator and concentration system after 150 µL of propylene glycol (1%, v/v) was added to the supernatant. The dried residue was then dissolved in 60 μL of the HPLC mobile phase for each analytical method, and a 10 or 20 μL portion was injected into the LC/MS/MS system.
Plasma pharmacokinetic data were analyzed by noncompartmental modeling using Phoenix WinNonlin (version 6.3, Certara L.P., St. Louis, MO, USA) to determine various pharmacokinetic constants, including the maximum concentration (Cmax), time to maximum concentration (tmax), apparent elimination half-life (t1/2), and area under the plasma concentration-time curve from zero to last observation time (AUC0–last). The t1/2 was divided by loge^2/ke, where ke was the terminal elimination (at least three data points on the descending linear limb) rate constant.

[2] = Lipid hydroperoxide (LPO) generation assay (linoleic acid, Fenton reaction); type: biochemical
Protocol: Antioxidant assays using linoleic acid with a purity of 98.0% (Wako Pure Chemical Ind.) were performed using a described protocol with modifications. Briefly, 20 μL of 1% linoleic acid in methanol, 20 μL of 20 mmol/L ferrous chloride in water, 20 μL of test sample in DMSO, and 150 μL of a mixed solution (1:1) of methanol and 20 mmol/L phosphate buffer (pH 7.0) were added to 96-well polypropylene plates. After incubation at room temperature in the dark for 1 h, 10 μL of the reaction products were transferred to 200 μL of a methanol solution containing 39 mmol/L ammonium thiocyanate, 0.2 mmol/L ferrous chloride, and 0.01 mol/L hydrochloride. After incubation for 15 min, absorbance at 500 nm was measured using a microplate reader (Multiskan GO, Thermo Fisher Scientific Inc., Waltham, MA, USA). The concentration of lipid hydroperoxide (LPO) products was calculated conveniently using standard curves of serially-diluted linolein hydroperoxides (Cayman Chemical). The percentage of control was calculated using the following formula; (A − B)/(C − B) × 100, with A = test sample, B = linoleic acid alone, and C = vehicle control. Ascorbic acid was used as a reference agent.

[3] = ROS scavenging assay (hydrogen peroxide-dependent oxidation); type: biochemical; settings: for IC50: concentration-dependency, Figure 4
Protocol: Hydrogen peroxide-dependent oxidation tests were performed using Oxiselect™ In Vitro ROS/RNS Assay kits (Cellbiolab Inc., San Diego, CA, USA) according to the manufacturer’s protocol. Briefly, a test sample was mixed with hydrogen peroxide (final concentration: 2.5 μmol/L) and incubated for 5 min. A fluorescent reaction was started by the addition of a fluorescent probe (dichrolodihydrofluorescin-DiOxyQ) at room temperature. After incubation for 15 min, relative fluorescent units (RFUs) were measured at […] using a fluorescent plate reader (Infinite M200; Tecan Trading AG, Männedorf, Switzerland). The percentage of control was calculated using the following formula; (A − B)/(C − B) × 100, with A = test sample, B = fluorescent probe alone, and C = vehicle control. (+)-Ascorbic acid was used as a reference agent.

[4] = 10 μmol/L, more than 100% = no activity
[5] = 10 μmol/L, C.I. = complete inhibition, more than 100% = no activity
[6] = in vivo, rat plasma, single oral KBGY 2 g/kg, read-out: AUC0–last
[7] = in vivo, rat plasma, single oral KBGY 2 g/kg, read-out: Cmax
[8] = in vivo, rat plasma, single oral KBGY 2 g/kg, read-out: t1/2 (converted)
[9] = in vivo, rat plasma, single oral KBGY 2 g/kg, read-out: tmax
[10] = rat plasma, single oral KBGY 2 g/kg
[11] = 1 μmol/L, C.I. = complete inhibition

AUC(0-t) ([1]; rat, in vivo, po, 2 g/kg) | Cmax ([1]; rat, in vivo, po, 2 g/kg) | Tmax ([1]; rat, in vivo, po, 2 g/kg) | Structure (SMILES) | Antioxidant Activity (% of Control) LPO Generation [2, 4] | Antioxidant Activity (% of Control) ROS Scavenge [3, 5] | anti-ROS activity ([3]; 10 μmol/L) | also measured
479 ng·h/mL | 159 ng/mL and 863 nM | 1 h | COc1c(O)cc(C(=O)O)cc1O [4-O-Methylgallic acid] | 105.4 ± 2.5 % of Control | 86.8 ± 0.2 % of Control | – | half-life ([1]; rat, in vivo, po, 2 g/kg): 0.906 h
– | – | – | N#C[C@H](O[C@@H]1O[C@H](CO)[C@@H](O)[C@H](O)[C@H]1O)c1ccccc1 [Prunasin] | 97.9 ± 3.3 % of Control | 102.2 ± 1.1 % of Control | – | AUC(0-t) [1, 6]: 3700 ng·h/mL; Cmax [1, 7]: 1450 ng/mL and 4.91 µM; half-life [1, 8]: 1.16 h; Tmax [1, 9]: 1 h
39.9 ng·h/mL | 54.7 ng/mL and 291 nM | 0.25 h | O=C(O)CCCCCCCC(=O)O [Azelaic acid] | 97.9 ± 4.4 % of Control | 100.4 ± 0.7 % of Control | – | –
– | – | – | COc1cc([C@@H]2c3c(cc(OC)c(O)c3OC)C[C@H](CO)[C@H]2CO)cc(OC)c1O [Lyoniresinol] | 57.4 ± 1.6 % of Control | C.I. | strong anti-ROS activity | AUC0–last [1, 10]: 0.3 ng·h/mL; Tmax [1, 10]: 1 h; t1/2 [1, 10]: 11.4 h; Antioxidant Activity (% of Control) LPO Generation ([2]; 1 μmol/L): 96.8 ± 2.9 % of Control; Antioxidant Activity (% of Control) LPO Generation ([2]; 10 μmol/L, more than 100% = no activity, listed as lyoniresinol): less than 80 % of Control; Antioxidant Activity (% of Control) ROS Scavenge [3, 11]: 89.3 ± 2.0 % of Control
– | – | 0.25 h | COc1cc([C@H]2OC[C@H]3[C@@H]2CO[C@@H]3c2cc(OC)c(O)c(OC)c2)cc(OC)c1O (racemic) [(±)-Syringaresinol] | 68.4 ± 3.3 % of Control | C.I. | strong anti-ROS activity | AUC0–last ([1]; rat, in vivo, po, 2 g/kg): 0.0771 ng·h/mL; Antioxidant Activity (% of Control) LPO Generation ([2]; 1 μmol/L): 107.4 ± 4.2 % of Control; Antioxidant Activity (% of Control) LPO Generation ([2]; 10 μmol/L, more than 100% = no activity, listed as (±)-syringaresinol): less than 80 % of Control; Antioxidant Activity (% of Control) ROS Scavenge [3, 11]: 39.4 ± 2.4 % of Control
– | – | – | N#CC(O)c1ccccc1 (centres unmarked) [Mandelonitrile] | 104.6 ± 1.2 % of Control | 99.7 ± 0.6 % of Control | – | AUC(0-t) [1, 6]: 251 ng·h/mL; Cmax [1, 7]: 165 ng/mL and 1.24 µM; Tmax [1, 9]: 1 h
– | – | – | C[C@]12C[C@@H](O)[C@@H]3C[C@@]1(O[C@@H]1O[C@H](CO)[C@@H](O)[C@H](O)[C@H]1O)[C@@]3(COC(=O)c1ccccc1)C(=O)O2 [Albiflorin] | 101.6 ± 2.2 % of Control | 104.2 ± 1.1 % of Control | – | AUC0–last [1, 10]: 64.9 ng·h/mL; Tmax [1, 10]: 0.5 h; t1/2 [1, 10]: 1.6 h
1.33 ng·h/mL | 1.07 ng/mL and 4 nM | 4 h | O=C1OC[C@H](Cc2cccc(O)c2)[C@H]1Cc1cccc(O)c1 [Enterolactone] | 86.1 ± 0.9 % of Control | C.I. | strong anti-ROS activity | Antioxidant Activity (% of Control) LPO Generation ([2]; 1 μmol/L): 102.1± 2.7 % of Control; Antioxidant Activity (% of Control) ROS Scavenge [3, 11]: 81.6 ± 2.9 % of Control
5.29 ng·h/mL | 1.21 ng/mL and 2 nM | 4 h | C=C(CC[C@@H](C(=O)O)[C@H]1[C@H](O)C[C@@]2(C)C3=C(CC[C@]12C)[C@@]1(C)CC[C@H](OC(C)=O)C(C)(C)[C@@H]1CC3)C(C)C [Pachymic acid] | – | – | – | –
58.6 ng·h/mL | 12.7 ng/mL and 69 nM | 1 h | COc1cc(C(=O)O)cc(O)c1O [3-O-Methylgallic acid] | – | C.I. | strong anti-ROS activity | half-life ([1]; rat, in vivo, po, 2 g/kg): 6.59 h; IC50 [3]: 744 nM
– | – | – | N#C[C@H](O[C@@H]1O[C@H](CO[C@@H]2O[C@H](CO)[C@@H](O)[C@H](O)[C@H]2O)[C@@H](O)[C@H](O)[C@H]1O)c1ccccc1 [Amygdalin] | 102.0 ± 2.1 % of Control | 106.4 ± 0.5 % of Control | – | AUC(0-t) [1, 6]: 79.9 ng·h/mL; Cmax [1, 7]: 37.7 ng/mL and 82 nM; half-life [1, 8]: 0.657 h; Tmax [1, 9]: 0.5 h
9.84 ng·h/mL | 1.68 ng/mL and 5 nM | 4 h | COc1cc(C[C@H]2CO[C@H](c3ccc(O)c(OC)c3)[C@H]2CO)ccc1O [Lariciresinol] | 79.5 ± 1.9 % of Control | C.I. | strong anti-ROS activity | Antioxidant Activity (% of Control) LPO Generation ([2]; 1 μmol/L): 98.3 ± 1.4 % of Control; Antioxidant Activity (% of Control) LPO Generation ([2]; 10 μmol/L, more than 100% = no activity, listed as lariciresinol): less than 80 % of Control; Antioxidant Activity (% of Control) ROS Scavenge [3, 11]: C.I.; IC50 [3]: 561 nM
– | – | – | O=C(O)/C=C/c1ccccc1 [(E)-Cinnamic acid] | 104.3 ± 2.3 % of Control | 108.7 ± 2.2 % of Control | – | –
– | – | – | O=C1O[C@H]([C@@H](O)CO)C(O)=C1O [(+)-Ascorbic acid, reference compound] | – | – | – | Antioxidant Activity (% of Control) ROS Scavenge ([3]; 114 μmol/L, reference agent): 14.5 ± 0.6 % of Control and 20.2 ± 0.6 % of Control

Structure (SMILES) | AUC(0-t) ([1]; rat, in vivo, po, 2 g/kg) | Cmax ([1]; rat, in vivo, po, 2 g/kg) | Tmax ([1]; rat, in vivo, po, 2 g/kg) | Antioxidant Activity (% of Control) LPO Generation [2, 4] | Antioxidant Activity (% of Control) ROS Scavenge [3, 5] | anti-ROS activity ([3]; 10 μmol/L) | also measured
C=C(CC[C@@H](C(=O)O)[C@H]1[C@H](O)C[C@@]2(C)C3=C(CC[C@]12C)[C@@]1(C)CC[C@H](O)C(C)(C)[C@@H]1CC3)C(C)C [Tumulosic acid] | 700 ng·h/mL | 200 ng/mL and 411 nM | 0.5 h | 99.4 ± 2.3 % of Control | 105.9 ± 2.1 % of Control | – | half-life ([1]; rat, in vivo, po, 2 g/kg): 4.66 h
O=C(O)c1cc(O)c(O)c(O)c1 [Gallic acid] | 172 ng·h/mL | 84.9 ng/mL and 499 nM | – | 74.0 ± 2.5 % of Control | 14.5 ± 0.7 % of Control | strong anti-ROS activity | Tmax [1, 9]: 0.5 h; half-life ([1]; rat, in vivo, po, 2 g/kg): 0.772 h; Antioxidant Activity (% of Control) LPO Generation ([2]; 10 μmol/L, more than 100% = no activity, listed as gallic acid): less than 80 % of Control; Inhibition of LPO generation ([2]; 3 and 10 μmol/L, Figure 4): significantly inhibited LPO generation; ROS scavenging activity (% control) ([3]; 0.313 μmol/L): 71.1 % control; IC50 [3]: 954 nM
